The target in experiment [1] is T1, human mu opioid receptor (Homo sapiens, UniProt P35372).
T1 construct: expressed in transfected cells
Put plainly: Calcium mobilization in CHO cells co-expressing the mu receptor and Gαqi5. It counts as cell-based. On the technique in general: A change in cytosolic calcium serves as a functional read-out for many receptors and channels.

The target in experiment [2] is T2, human delta opioid receptor (Homo sapiens, UniProt P41143).
T2 construct: expressed in transfected cells
T2 sequence (P41143 whole entry): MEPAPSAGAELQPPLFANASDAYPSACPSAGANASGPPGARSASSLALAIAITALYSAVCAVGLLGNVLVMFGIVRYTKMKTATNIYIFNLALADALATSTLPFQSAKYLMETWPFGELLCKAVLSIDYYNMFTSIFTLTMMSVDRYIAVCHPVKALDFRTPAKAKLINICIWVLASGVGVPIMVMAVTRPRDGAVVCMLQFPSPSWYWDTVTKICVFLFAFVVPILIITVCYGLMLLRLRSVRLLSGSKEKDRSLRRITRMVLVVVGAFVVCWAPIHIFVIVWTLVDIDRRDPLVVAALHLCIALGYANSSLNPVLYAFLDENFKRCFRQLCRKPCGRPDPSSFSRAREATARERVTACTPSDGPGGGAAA
Put plainly: Calcium mobilization in CHO cells co-expressing the delta receptor and GαqG66Di5. It counts as cell-based.

The test system of experiment [3] is human kappa opioid receptor. As to the kind of experiment: Bias factor, G protein vs β-arrestin 2, from BRET data. As to the method: To quantify the differences in agonist efficacies for G protein and arrestin interactions, bias factors were calculated by choosing the endogenous kappa opioid ligand Dyn A as standard unbiased ligand. For this analysis, the Emax and EC50 of the agonist were derived using a 3-parameter logistic model with slope values equal to unity. […] Under such conditions, the relative ratio (Emax/EC50)lig/(Emax/EC50)Dyn A is equivalent to the relative (τ/K)lig/(τ/K)Dyn A ratio as defined by the operational model ([Black and Leff, 1983]; [Griffin et al., 2007]). Taking ratios of these values between G protein and arrestin can cancel the common K and yield the ratio of ligand intrinsic efficacy across the two transduction proteins. Thus, the following formula was used for calculating agonist bias factors in log10 units: bias factor= log[(Emax/EC50)lig/(Emax/EC50)Dyn A]G prot.−log[(Emax/EC50)lig/(Emax/EC50)Dyn A]β−arr.
The pharmacological terminology and computations related to biased agonism were consistent with IUPHAR recommendations ([Kolb et al., 2022]).
On the technique in general: Bioluminescence resonance energy transfer reports proximity on the nanometre scale.

In experiment [4] the target is T3, human kappa opioid receptor (Homo sapiens, UniProt P41145). As to the kind of experiment: biochemical. The class given is biochemical. More on the design: 13-mer linker peptide […]; expressed in transfected cells; enriched plasma membranes used.
T3 sequence (P41145 whole entry): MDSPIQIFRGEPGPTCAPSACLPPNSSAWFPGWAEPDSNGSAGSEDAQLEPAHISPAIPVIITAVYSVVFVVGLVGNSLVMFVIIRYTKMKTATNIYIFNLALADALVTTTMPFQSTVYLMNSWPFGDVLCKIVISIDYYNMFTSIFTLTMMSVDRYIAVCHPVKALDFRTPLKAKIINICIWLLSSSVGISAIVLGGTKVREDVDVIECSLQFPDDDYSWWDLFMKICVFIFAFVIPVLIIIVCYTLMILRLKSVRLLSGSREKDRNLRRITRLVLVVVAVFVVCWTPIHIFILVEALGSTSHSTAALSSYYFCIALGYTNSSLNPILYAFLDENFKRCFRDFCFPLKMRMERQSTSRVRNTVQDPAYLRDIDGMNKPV
The target in experiment [5] is T3, human kappa opioid receptor. Put plainly: BRET kappa-β-arrestin 2 interaction, SH-SY5Y whole cells. More on the design: 13-mer linker peptide […]; expressed in transfected cells; enriched plasma membranes used. It counts as cell-based.
Experiment [6] shares this target. Put plainly: Dynamic mass redistribution (DMR) label-free assay in CHO cells. It counts as cell-based. More on the design: expressed in transfected cells. As to the method: DMR experiments were conducted as previously described ([Malfacini et al., 2018]). Chinese Hamster Ovary (CHO) cells stably expressing the human kappa receptor were kindly provided by L Toll (Torrey Pines Institute for Molecular Studies, Port St. Lucie, United States). Cells were cultured in Dulbecco’s Modified Eagle Medium: Nutrient Mixture F-12 (DMEM/F12) supplemented with 10% (v/v) Fetal Calf Serum (FCS), 100 U/ml penicillin, 100 μg/ml streptomycin, 2 mM L-glutamine, 15 mM HEPES. The medium was supplemented with 400 μg/ml G418 to maintain expression. Cells were seeded at a density of 45,000 cells/well in 120 μL into fibronectin-coated EnspireTM-LC 96-wells plates and cultured for 20 h to form a confluent monolayer. On the day of the experiment, cells were washed twice and maintained with assay buffer: HBSS with 20 mM HEPES, 0.01% BSA fraction V; for 90 min before the experiment. DMR was monitored in real-time with a temporal resolution of 44 s throughout the assay. Experiments were performed at 37°C, using an EnSight Multimode Plate Reader (PerkinElmer). A 5 min baseline was first established, followed by adding compounds manually in a volume of 40 μL and recording compound-triggered DMR signal for 60 min. In antagonism experiments, ligands tested as antagonists were added 30 min before agonist administration. Maximum picometers (pm) modification (peak) were used to determine agonist response after baseline normalization.
The pharmacological terminology is consistent with the International Union of Basic and Clinical Pharmacology (IUPHAR) recommendations ([Neubig et al., 2003]). Concentration-response curves to agonists were fitted to the four-parameter logistic nonlinear regression model as follows: Effect=Basal+ Emax−Basal/1+10^ (LogEC50−Log[ligand]) × HillSlope
If unsurmountable antagonist behavior was detected, the pKB value was derived as follows: a double-reciprocal plot of equi-effective concentrations of agonist (A) in the absence (1/A) and presence (1/A’) of the antagonist (B) was constructed and pKB was derived from the equation pKB = log {(slope-1)/[B]} ([Kenakin, 2009]).

The target is the same in experiment [7]. Put plainly: Calcium mobilization in CHO cells co-expressing the kappa receptor and Gαqi5. The class given is cell-based. More on the design: expressed in transfected cells.
For experiment [8] the target is unchanged. Put plainly: Summary over the assays used (calcium mobilization, DMR, BRET). More on the design: expressed in transfected cells. It counts as cell-based.
Experiment [9] relates to mice. More on the design: method as in Gairin et al., 1988a. Particulars: intracerebroventricular, ref Gairin et al., 1988a; cited from earlier work.
Experiment [10] has as its system mice. More on the design: method as in Gairin et al., 1988a. Particulars: intracerebroventricular, ref Gairin et al., 1988a; cited from earlier work. This is another data set of the same source.
For experiment [11], the system named is kappa opioid receptor. More on the design: method as in Arimitsu et al., 1977. Particulars: ref Arimitsu et al., 1977, cited from earlier work.

Marks after values point to notes of the source that are not given here.

These results are taken from publication PMC9068900, “Pharmacology of Kappa Opioid Receptors: Novel Assays and Ligands” (Frontiers in Pharmacology, 2022).

T1 sequence (P35372 whole entry): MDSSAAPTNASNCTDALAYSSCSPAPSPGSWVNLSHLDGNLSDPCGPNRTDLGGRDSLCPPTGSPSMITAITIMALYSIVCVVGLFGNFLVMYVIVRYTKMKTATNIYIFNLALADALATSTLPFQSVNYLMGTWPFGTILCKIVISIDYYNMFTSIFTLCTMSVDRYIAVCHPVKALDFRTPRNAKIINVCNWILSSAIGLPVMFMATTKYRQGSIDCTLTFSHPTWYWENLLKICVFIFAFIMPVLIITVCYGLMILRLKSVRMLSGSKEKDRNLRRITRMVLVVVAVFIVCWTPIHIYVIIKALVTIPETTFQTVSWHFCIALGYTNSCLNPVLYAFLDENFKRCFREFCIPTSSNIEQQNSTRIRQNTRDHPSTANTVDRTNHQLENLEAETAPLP

For the compound `C[C@@H](NC(=O)[C@@H](N)Cc1ccc(O)cc1)C(=O)N[C@@H](Cc1ccccc1)C(=O)NCC(=O)N[C@@H](Cc1ccc(O)cc1)C(=O)N1CCC[C@H]1C(=O)N[C@@H](CO)C(N)=O` [Dermorphin], the Maximal effects in [1] (CHO cells, mu + Gαqi5) is 294 % over the baseline.

On to `CC[C@H](C)[C@H](NC(=O)[C@H](CCCNC(=N)N)NC(=O)[C@H](CCCNC(=N)N)NC(=O)[C@H](CC(C)C)NC(=O)[C@H](Cc1ccccc1)NC(=O)CNC(=O)CNC(=O)[C@@H](N)Cc1ccc(O)cc1)C(=O)N[C@@H](CCCNC(=N)N)C(=O)N1CCC[C@H]1C(=O)N[C@@H](CCCCN)C(=O)N[C@@H](CC(C)C)C(=O)N[C@@H](CCCCN)C(=O)N[C@@H](Cc1c[nH]c2ccccc12)C(=O)N[C@@H](CC(=O)O)C(=O)N[C@@H](CC(N)=O)C(=O)N[C@@H](CCC(N)=O)C(=O)O` [Dyn A, dynorphin A], for which the Maximal effects in [2] (CHO cells, delta + GαqG66Di5) is on record as 171 % over the baseline. In addition, the “Bias factor (CL95%)” value in experiment [3] was 0.00.

`CCCCCCCCCCCCCCCC(=O)NCCCN1C(=O)CC(SC[C@H](NC(=O)[C@H](CCC(N)=O)NC(=O)[C@H](CC(N)=O)NC(=O)[C@H](CC(=O)O)NC(=O)[C@H](Cc2c[nH]c3ccccc23)NC(=O)[C@H](CCCCN)NC(=O)[C@H](CC(C)C)NC(=O)[C@H](CCCCN)NC(=O)[C@@H]2CCCN2C(=O)[C@H](CCCNC(=N)N)NC(=O)[C@@H](NC(=O)[C@H](CCCNC(=N)N)NC(=O)[C@H](CCCNC(=N)N)NC(=O)[C@H](CC(C)C)NC(=O)[C@H](Cc2ccccc2)NC(=O)CNC(=O)CNC(=O)[C@@H](N)Cc2ccc(O)cc2)[C@@H](C)CC)C(N)=O)C1=O` (some centres unmarked) [Dyn A-palmitic]: the “Less potent than DPDPE” value in [2] (calcium mobilization, delta) turned out to be 10 fold. The “Lower potency than dermorphin” value in experiment [1] (calcium mobilization, mu) is reported as “approximately 6 fold”.

With `Nc1nc2c(ncn2[C@@H]2O[C@H](COP(=O)(O)OP(=O)(O)O)[C@@H](O)[C@H]2O)c(=O)[nH]1` [GDP, guanosine diphosphate], the “pEC50 (CL95%)” value in experiment [4] (5 min after compound addition) was 8.20; in experiment [4] (30 min after compound addition), 8.21.

Turning to `CC[C@H](C)[C@H](NC(=O)[C@H](CCCNC(=N)N)NC(=O)[C@H](CCCNC(=N)N)NC(=O)[C@H](CC(C)C)NC(=O)[C@H](Cc1ccccc1)NC(=O)CNC(=O)CNC(=O)[C@@H](N)Cc1ccc(O)cc1)C(=O)N[C@@H](CCCNC(=N)N)C(=O)N1CCC[C@H]1C(=O)N[C@@H](CCCCN)C(=O)N[C@@H](CC(C)C)C(=O)N[C@@H](CCCCN)C(=O)N[C@@H](Cc1c[nH]c2ccccc12)C(=O)N[C@@H](CC(=O)O)C(=O)N[C@@H](CC(N)=O)C(=O)N[C@@H](CCC(N)=O)C(=O)N[C@@H](CSC1CC(=O)N(CCCC(=O)N2CCCN(C(=O)CCCN3C(=O)CC(SC[C@H](NC(=O)[C@H](CCC(N)=O)NC(=O)[C@H](CC(N)=O)NC(=O)[C@H](CC(=O)O)NC(=O)[C@H](Cc4c[nH]c5ccccc45)NC(=O)[C@H](CCCCN)NC(=O)[C@H](CC(C)C)NC(=O)[C@H](CCCCN)NC(=O)[C@@H]4CCCN4C(=O)[C@H](CCCNC(=N)N)NC(=O)[C@@H](NC(=O)[C@H](CCCNC(=N)N)NC(=O)[C@H](CCCNC(=N)N)NC(=O)[C@H](CC(C)C)NC(=O)[C@H](Cc4ccccc4)NC(=O)CNC(=O)CNC(=O)[C@@H](N)Cc4ccc(O)cc4)[C@@H](C)CC)C(N)=O)C3=O)CCN(C(=O)CCCN3C(=O)CC(SC[C@H](NC(=O)[C@H](CCC(N)=O)NC(=O)[C@H](CC(N)=O)NC(=O)[C@H](CC(=O)O)NC(=O)[C@H](Cc4c[nH]c5ccccc45)NC(=O)[C@H](CCCCN)NC(=O)[C@H](CC(C)C)NC(=O)[C@H](CCCCN)NC(=O)[C@@H]4CCCN4C(=O)[C@H](CCCNC(=N)N)NC(=O)[C@@H](NC(=O)[C@H](CCCNC(=N)N)NC(=O)[C@H](CCCNC(=N)N)NC(=O)[C@H](CC(C)C)NC(=O)[C@H](Cc4ccccc4)NC(=O)CNC(=O)CNC(=O)[C@@H](N)Cc4ccc(O)cc4)[C@@H](C)CC)C(N)=O)C3=O)CCCN(C(=O)CCCN3C(=O)CC(SC[C@H](NC(=O)[C@H](CCC(N)=O)NC(=O)[C@H](CC(N)=O)NC(=O)[C@H](CC(=O)O)NC(=O)[C@H](Cc4c[nH]c5ccccc45)NC(=O)[C@H](CCCCN)NC(=O)[C@H](CC(C)C)NC(=O)[C@H](CCCCN)NC(=O)[C@@H]4CCCN4C(=O)[C@H](CCCNC(=N)N)NC(=O)[C@@H](NC(=O)[C@H](CCCNC(=N)N)NC(=O)[C@H](CCCNC(=N)N)NC(=O)[C@H](CC(C)C)NC(=O)[C@H](Cc4ccccc4)NC(=O)CNC(=O)CNC(=O)[C@@H](N)Cc4ccc(O)cc4)[C@@H](C)CC)C(N)=O)C3=O)CC2)C1=O)C(N)=O` (some centres unmarked) [PWT2-Dyn A], in [5], the “BRET β-Arrestin 2 α” value is “∼1.00”; the EC50 (as a rule, the midpoint of the concentration-response curve) was 219 nM; the “Lower potency than Dyn A” value is reported as 3 fold. In experiment [4], the “BRET G Protein α” value is given as “∼1.00” and the “Lower potency than Dyn A” value came to 3 fold. Also, in experiment [4] (BRET G Protein pEC50 (CL95%)), the EC50 is 18.6 nM. Moreover, in experiment [6], the “DMR α” value is given as 0.84 and the “Lower potency than Dyn A” value came out at 4 fold. Further, in experiment [7], the “Calcium Mobilization α (intrinsic activity: maximal effect divided by that of Dyn A)” value was “∼1.00” and the EC50 is 30.9 nM. Further, the Stimulatory effect in [2] (only at the highest concentration tested) is recorded as 77 % over the baseline. Further, the “Lower potency than dynorphin A” value in experiment [8] is 3–10 fold. Besides, the “Agonist activity (in words)” value in experiment [1] (CHO cells, mu + Gαqi5) is “inactive”. The “Bias factor (CL95%)” value in [3] is “∼0.18 ^c”.

As for `CC[C@H](C)[C@H](NC(=O)[C@H](CCCNC(=N)N)NC(=O)[C@H](CCCNC(=N)N)NC(=O)[C@H](CC(C)C)NC(=O)[C@H](Cc1ccccc1)NC(=O)CNC(=O)CNC(=O)[C@@H](N)Cc1ccc(O)cc1)C(=O)N[C@@H](CCCNC(=N)N)C(=O)N1CCC[C@@H]1C(=O)N[C@@H](CCCCN)C(N)=O` [[D-Pro^10], [D-Pro^10]Dyn(1-11)-NH2], in [5], the “BRET β-Arrestin 2 pEC50 (CL95%)” value is 8.07 (7.66–8.47) and the “BRET β-Arrestin 2 α” value is given as 0.95. For the same compound, in experiment [4], the “BRET G Protein pEC50 (CL95%)” value is 8.36 (6.54–10.19) and the “BRET G Protein α” value was 1.00. In addition, in experiment [6], the “DMR Emax” value stood at 251 pm, the “DMR pEC50 (CL95%)” value is 9.84 (9.31–10.37) and the “DMR α” value came out at 1.07. Further, in experiment [7], the “Calcium Mobilization pEC50 (CL95%)” value is given as 9.08 (8.93–9.23) and the “Calcium Mobilization α (intrinsic activity: maximal effect divided by that of Dyn A)” value turned out to be 1.00.

For the compound [D-Pro^10]Dyn(1-11), the “Activity against thermal stimulus (tail-flick)” value in experiment [9] is recorded as “did not show any activity”. Besides, the “Effect in acetic acid-induced writhing” value in [10] is reported as “dose-dependent antinociceptive effect”. Moreover, in experiment [11] ([^3H]Bremazocine binding), the “Higher affinity to the kappa opioid receptor than Dyn A” value is on record as 7 fold. Further, in experiment [11], the “Selectivity over the delta opioid receptor” value is recorded as 233 fold and the “Selectivity over the mu opioid receptor” value is listed as 62 fold.
